In US20230365542A1, “Selective Agonists of 5-HT2A Receptor and Methods of Use” (Yale University, priority 2020, published 2023):
Where two headings read alike, the source gives them in different places.

Key:
5-HT2BR [1] = target: T1, 5-HT2BR (Homo sapiens, UniProt P41595); assay: Calcium flux assay (FLIPR, Fluo-4), 5-HT2BR stable cell line; type: cell-based; conditions: for 5-HT2BR Rmax ± S.E.M: value in parentheses
T1 construct: expressed in transfected cells; host or cells: Flp-In 293 T-Rex (tetracycline inducible)
T1 sequence (P41595 whole entry): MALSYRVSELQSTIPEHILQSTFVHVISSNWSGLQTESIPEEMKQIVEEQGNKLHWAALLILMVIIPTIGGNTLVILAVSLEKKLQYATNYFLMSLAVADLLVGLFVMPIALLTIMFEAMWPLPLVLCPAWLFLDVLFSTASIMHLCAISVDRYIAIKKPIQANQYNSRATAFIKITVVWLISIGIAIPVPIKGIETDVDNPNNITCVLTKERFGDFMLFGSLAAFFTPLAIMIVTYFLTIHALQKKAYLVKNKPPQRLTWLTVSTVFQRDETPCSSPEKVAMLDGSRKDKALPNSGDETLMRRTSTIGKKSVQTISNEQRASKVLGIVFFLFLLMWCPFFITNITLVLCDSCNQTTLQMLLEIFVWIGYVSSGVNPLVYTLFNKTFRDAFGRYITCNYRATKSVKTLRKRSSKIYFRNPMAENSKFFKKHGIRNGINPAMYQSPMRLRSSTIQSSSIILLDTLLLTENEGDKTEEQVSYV
Experimental: Stable cell lines for 5-HT2AR, 5-HT2BR and 5-HT2CR generated using the Flp-In 293 T-Rex Tetracycline inducible system (Invitrogen). Tetracycline-induced cells were seeded in 384-well poly-L-lysine plates at a density of 10,000 cells/well in DMEM containing 1% dialyzed FBS at least 16-24 hr before the calcium flux assay. On the day of the assay, the cells were incubated (20 ul/well) for 1 hr at 37° C. with Fluo-4 Direct dye (Invitrogen) reconstituted in FLIPR buffer (1×HBSS, 2.5 mM probenecid, and 20 mM HEPES, pH 7.4). After dye loading, cells were placed in a FLIPR^TETRA fluorescence imaging plate reader ([…]). Drug dilutions were prepared at 3× final concentration in drug buffer (1×HBSS, 20 mM HEPES, 0.1% BSA, 0.01% ascorbic acid, pH 7.4) and aliquoted into 384-well plates and placed in the FLIPR^TETRA for drug stimulation. The fluidics module and plate reader of the FLIPR^TETRA were programmed to read baseline fluorescence for 10s (1 read/s), then 10 ul of drug/well was added and read for 5 min (1 read/s). Fluorescence in each well was normalized to the average of the first 10 reads (i.e., baseline fluorescence). Then, the maximum-fold increase, which occurred within the first 60 s after drug addition, was determined and fold over baseline was plotted as a function of drug concentration. Data were normalized to % 5-HT stimulation and analyzed using “log(agonist) vs. response” in GraphPad Prism 9.0.

5-HT2BR [2] = target: T1, 5-HT2BR; assay: 5-HT2BR binding affinity (Ki), Table 8
5-HT2CR [3] = target: T2, 5-HT2CR (Homo sapiens, UniProt P28335); assay: 5-HT2CR binding affinity (Ki), Table 8
T2 sequence (P28335 33-458): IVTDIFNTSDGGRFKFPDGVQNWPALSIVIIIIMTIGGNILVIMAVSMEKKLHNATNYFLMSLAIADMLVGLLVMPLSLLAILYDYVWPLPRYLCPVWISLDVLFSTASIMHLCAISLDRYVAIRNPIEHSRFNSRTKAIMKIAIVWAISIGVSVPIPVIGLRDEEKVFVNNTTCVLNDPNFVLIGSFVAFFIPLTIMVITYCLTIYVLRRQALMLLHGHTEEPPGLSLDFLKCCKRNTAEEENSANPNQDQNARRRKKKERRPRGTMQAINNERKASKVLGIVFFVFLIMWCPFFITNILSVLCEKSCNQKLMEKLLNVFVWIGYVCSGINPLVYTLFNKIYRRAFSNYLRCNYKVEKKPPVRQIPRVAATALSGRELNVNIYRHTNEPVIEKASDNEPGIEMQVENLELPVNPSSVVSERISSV

5-HT2CR [4] = target: T2, 5-HT2CR; assay: Calcium flux assay (FLIPR, Fluo-4), 5-HT2CR stable cell line; type: cell-based; conditions: for EC50: read-out: 5-HT2CR EC50; for 5-HT2CR Rmax ± S.E.M: value in parentheses
Experimental: (§1) Stable cell lines for 5-HT2AR, 5-HT2BR and 5-HT2CR generated using the Flp-In 293 T-Rex Tetracycline inducible system (Invitrogen). Tetracycline-induced cells were seeded in 384-well poly-L-lysine plates at a density of 10,000 cells/well in DMEM containing 1% dialyzed FBS at least 16-24 hr before the calcium flux assay. On the day of the assay, the cells were incubated (20 ul/well) for 1 hr at 37° C. with Fluo-4 Direct dye (Invitrogen) reconstituted in FLIPR buffer (1×HBSS, 2.5 mM probenecid, and 20 mM HEPES, pH 7.4). After dye loading, cells were placed in a FLIPR^TETRA fluorescence imaging plate reader (Molecular Dynamics). Drug dilutions were prepared at 3× final concentration in drug buffer (1×HBSS, 20 mM HEPES, 0.1% BSA, 0.01% ascorbic acid, pH 7.4) and aliquoted into 384-well plates and placed in the FLIPR^TETRA for drug stimulation. The fluidics module and plate reader of the FLIPR^TETRA were programmed to read baseline fluorescence for 10s (1 read/s), then 10 ul of drug/well was added and read for 5 min (1 read/s). Fluorescence in each well was normalized to the average of the first 10 reads (i.e., baseline fluorescence). Then, the maximum-fold increase, which occurred within the first 60 s after drug addition, was determined and fold over baseline was plotted as a function of drug concentration. Data were normalized to % 5-HT stimulation and analyzed using “log(agonist) vs. response” in GraphPad Prism 9.0.

5-HT2AR [5] = target: T3, 5-HT2AR (Homo sapiens, UniProt P28223); assay: 5-HT2AR binding affinity (Ki), Table 8
T3 construct: expressed in transfected cells; host or cells: Flp-In 293 T-Rex (tetracycline inducible)
T3 sequence (P28223 whole entry): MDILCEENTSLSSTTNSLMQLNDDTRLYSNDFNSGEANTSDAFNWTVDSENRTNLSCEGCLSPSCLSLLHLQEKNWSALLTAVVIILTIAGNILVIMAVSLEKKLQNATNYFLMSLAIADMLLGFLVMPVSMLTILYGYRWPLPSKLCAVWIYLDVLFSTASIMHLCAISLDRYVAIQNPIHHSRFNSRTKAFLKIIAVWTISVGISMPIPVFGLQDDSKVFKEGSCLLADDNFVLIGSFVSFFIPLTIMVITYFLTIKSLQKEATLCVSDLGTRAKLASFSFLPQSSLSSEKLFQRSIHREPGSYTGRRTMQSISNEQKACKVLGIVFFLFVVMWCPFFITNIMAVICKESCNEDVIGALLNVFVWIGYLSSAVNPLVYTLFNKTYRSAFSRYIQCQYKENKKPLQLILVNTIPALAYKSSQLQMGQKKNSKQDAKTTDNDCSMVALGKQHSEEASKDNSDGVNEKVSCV

5-HT2AR [6] = target: T3, 5-HT2AR; assay: Calcium flux assay (FLIPR, Fluo-4), 5-HT2AR stable cell line; type: cell-based; conditions: for 5-HT2AR Rmax ± S.E.M: value in parentheses
Experimental: as §1

[7] = bracketed value below EC50, read-out: 5-HT2BR pEC50 ± S.E.M (converted)
[8] = bracketed value below Ki, read-out: 5-HT2BR pKi ± S.E.M (converted)
[9] = bracketed value below EC50, read-out: 5-HT2AR pEC50 ± S.E.M (converted)
[10] = bracketed value below Ki, read-out: 5-HT2CR pKi ± S.E.M (converted)

| Structure (SMILES) | EC50 (5-HT2BR [1]; read-out: 5-HT2BR EC50) | 5-HT2BR Rmax ± S.E.M (5-HT2BR [1]) | Ki (5-HT2BR [2]; read-out: 5-HT2BR Ki) | Ki (5-HT2CR [3]; read-out: 5-HT2CR Ki) | EC50 (5-HT2CR [4]) | Ki (5-HT2AR [5]; read-out: 5-HT2AR Ki) | EC50 (5-HT2AR [6]; read-out: 5-HT2AR EC50) | 5-HT2AR Rmax ± S.E.M (5-HT2AR [6]) | 5-HT2BR EC50 (5-HT2BR [1]) | 5-HT2CR EC50 (5-HT2CR [4]) | EC50 (5-HT2BR [1]; [7]) | Ki (5-HT2BR [2]; [8]) | EC50 (5-HT2AR [6]; [9]) | Ki (5-HT2CR [3]; [10]) | 5-HT2CR Rmax ± S.E.M (5-HT2CR [4]) | 5-HT2AR EC50 (5-HT2AR [6]) | Ki (5-HT2AR [5]; bracketed value below Ki, read-out: 5-HT2AR pKi ± S.E.M (converted)) |
| --- | --- | --- | --- | --- | --- | --- | --- | --- | --- | --- | --- | --- | --- | --- | --- | --- | --- |
| c1cnc2[nH]cc(C3CCCNC3)c2c1 (single isomer, unassigned) [compound 50, 3-(piperidin-3-yl)-1H-pyrrolo[2,3-b]pyridine] | 680 nM | (47.0% | 620 nM | 2730 nM | > 10000 nM | 5250 nM | 1170 nM | (65.1% |  |  |  |  |  |  |  |  |  |
| c1cnc2[nH]cc(C3CCCNC3)c2c1 (single isomer, unassigned) [compound 51, 3-(piperidin-3-yl)-1H-pyrrolo[2,3-b]pyridine] |  |  | 500 nM | 480 nM |  | 2730 nM | 4210 nM | (18.2% | antagonist | antagonist |  |  |  |  |  |  |  |
| CCCCCN1CC(c2cncc(Cl)c2)=C[C@H](C)C1 [Compound 10, 5′-chloro-5-methyl-1-pentyl-1,2,5,6-tetrahydro-3,3′-bipyridine] |  | (88.9% |  | 1660 nM | > 10000 nM | 7010 nM |  | (68.6% |  |  | 24.5 nM | 5.01 nM | 331 nM |  |  |  |  |
| CCCN1CC(c2cncc(Cl)c2)=C[C@H](C)C1 [Compound 16, 5′-Chloro-5-methyl-1-propyl-1,2,5,6-tetrahydro-3,3′-bipyridine] |  | (74.9% |  | 6520 nM | 6760 nM | 7320 nM | 1060 nM | (48.7% |  |  | 20 nM | 13.2 nM | 1050 nM | 6310 nM | (34.4% |  |  |
| CCCCN1CC(c2c[nH]c3ncccc23)=C[C@H](C)C1 [Compound 22, 3-(1-butyl-5-methyl-1,2,5,6-tetrahydropyridin-3-yl)-1H-pyrrolo[2,3-b]pyridine] |  |  | 1970 nM | 7030 nM |  | 5270 nM | 2260 nM | (23.8% | antagonist | antagonist |  |  |  | 7410 nM |  |  |  |
| C[C@@H]1C=C(c2c[nH]c3ncccc23)CN(C2CC2)C1 [compound 29, (R)-3-(1-cyclopropyl-5-methyl-1,2,5,6-tetrahydropyridin-3-yl)-1H-pyrrolo[2,3-b]pyridine] | 5150 nM | (74.7% | 1660 nM | > 10000 nM |  | 6140 nM | 1360 nM | (63.0% |  |  |  |  |  |  |  |  |  |
| C[C@H]1C=C(c2c[nH]c3ncccc23)CN(C2CC2)C1 [compound 30, (S)-3-(1-cyclopropyl-5-methyl-1,2,5,6-tetrahydropyridin-3-yl)-1H-pyrrolo[2,3-b]pyridine] | 4360 nM | (58.3% | 2540 nM | > 10000 nM |  | > 10000 nM | 3540 nM | (29.1% |  |  |  |  |  |  |  |  |  |
| C[C@@H]1C=C(c2c[nH]c3ncccc23)CN(CCCN(C)C)C1 [compound 31, (R)-N,N-dimethyl-3-(3-methyl-5-(1H-pyrrolo[2,3-b]pyridin-3-yl)-3,6-dihydropyrridin-1(2H)-yl)propan-1-amine] |  |  | > 10000 nM | > 10000 nM |  | > 10000 nM |  |  | antagonist |  |  |  |  |  |  | antagonist |  |
| C[C@H]1C=C(c2c[nH]c3ncccc23)CN(CCCN(C)C)C1 [compound 32, (S)-N,N-dimethyl-3-(3-methyl-5-(1H-pyrrolo[2,3-b]pyridin-3-yl)-3,6-dihydropyridin-1(2H)-yl)propan-1-amine] |  |  | 9720 nM | > 10000 nM |  | > 10000 nM |  |  | antagonist |  |  |  |  |  |  | antagonist |  |
| C[C@H]1C=C(c2c[nH]c3ncccc23)CN(C)C1 [compound 34, (S)-3-(1,5-dimethyl-1,2,5,6-tetrahydropyridin-3-yl)-1H-pyrrolo[2,3-b]pyridine] |  |  | 640 nM | 750 nM |  | 1520 nM | 1140 nM | (7.1% | antagonist | antagonist |  |  |  | 741 nM |  |  |  |
| C[C@@H]1C=C(c2c[nH]c3ncccc23)CNC1 [compound 38, (R)-3-(5-methyl-1,2,5,6-tetrahydropyridin-3-yl)-1H-pyrrolo[2,3-b]pyridine] |  | (82.9% |  |  |  | 680 nM |  | (90.1% |  |  |  | 295 nM |  |  | (75.0% |  |  |
| C[C@@H]1C=C(c2c[nH]c3ncccc23)CN(CCCc2cnn(C)c2)C1 [compound 43, (R)-3-(5-methyl-1-(3-(1-methyl-1H-pyrazol-4-yl)propyl)-1,2,5,6-tetrahydropyridin-3-yl)-1H-pyrrolo[2,3-b]pyridine] | 790 nM | (39.5% | 700 nM | > 10000 nM |  | 670 nM |  |  |  |  |  | 692 nM |  |  |  | antagonist | 661 nM |
| C[C@H]1C=C(c2c[nH]c3ncccc23)CN(CCCc2cnn(C)c2)C1 [compound 44, (S)-3-(5-methyl-1-(3-(1-methyl-1H-pyrazol-4-yl)propyl)-1,2,5,6-tetrahydropyridin-3-yl)-1H-pyrrolo[2,3-b]pyridine] | 360 nM | (56.2% | 960 nM | > 10000 nM |  | 2370 nM |  | (40.2% |  |  | 355 nM |  | 269 nM |  |  |  |  |
| C[C@H]1C=C(c2c[nH]c3ncccc23)CN(Cc2cnco2)C1 [compound 48, (S)-5-((3-methyl-5-(1H-pyrrolo[2,3-b]pyridin-3-yl)-3,6-dihydropyridin-1(2H)-yl)methyl)oxazole] | 8860 nM | (48.8% | 8010 nM | > 10000 nM |  | > 10000 nM |  |  |  |  |  |  |  |  |  | antagonist |  |
